One block for each compound: values may come before it.
Experiments:
[1] = Compatibility (clarity) in water borne urethane/acrylic copolymer coating, Example 101; type: physicochemical; details: 2% by weight stabilizer; haziness = incompatibility
Method: Formulation Reference: NeoResins, Inc., Formulation WB-2010, Technical Brochure, August, 2000.
(§1) The following components are mixed together under good agitation:
This solution is added to a 4 ounce clear glass jar containing 72.85 parts of NeoPac R-9699 under vigorous agitation and agitated for 10 minutes. Optionally, a defoamer, like Dehydran 1620 (Henkel), and a flash rusting agent, like Heiscore XAB (Cas Chem), are added. The lid is placed securely on the jar. The solidified coatings are visually observed for clarity after solidification. The development of opacity or haziness is indicative of an incompatibility between the hindered amine stabilizer and the formulated coating.

[2] = Compatibility (clarity) in alkali-soluble water-borne acrylic copolymer coating, liquid in jar, Example 112; type: physicochemical; details: 2% by weight stabilizer; haziness = incompatibility
Method: Formulation Reference: NeoResins, Inc., Formulation WB-2065, Technical Brochure.
as §1
(§2) This solution is added to a 4 ounce clear glass jar containing 54.14 parts of NeoCryl BT-520 and 0.43 parts of Instant Stabilizer under vigorous agitation and is agitated for 10 minutes. The lid is placed securely on the jar. The liquid coating samples are visually observed for clarity over time. The development of opacity or haziness is indicative of an incompatibility between the hindered amine stabilizer and the formulated coating.

[3] = Compatibility (clarity) in two component water-borne polyurethane coating, jar, Example 113; type: physicochemical; details: 2% by weight stabilizer, with UVA; haziness = incompatibility
Method: Formulation Reference: Bayer Corp., 2K Waterborne Clear, Notebook #820894-A, Technical Brochure.
as §1
as §2, with “15.56” for “54.14”, “Bayhydur XP-7165” for “NeoCryl BT-520”, “3.91” for “0.43”, “Exxate 700” for “Instant Stabilizer”, “solidified” for “liquid”

[4] = Compatibility (clarity) of acrylic copolymer coating in Petri dish, Example 114; type: physicochemical; details: coating of Example 112; oven 65 C thirty minutes; 2% by weight stabilizer
Method: (§3) The hindered amine test stabilizers are incorporated into a coating system as described in Example 112. A 9.5-10 gram sample of each of the liquid coatings is added to a 100 mm×15 mm Petri dish and is placed in an oven at 65 C for thirty minutes. The samples are taken out of the oven, allowed to cool, and are visually observed for clarity over time. The development of opacity or haziness is indicative of an incompatibility between the hindered amine stabilizer and the formulated coating.

[5] = Compatibility (clarity) of polyurethane coating in Petri dish, Example 115; type: physicochemical; details: coating of Example 113; oven 75 C 120 minutes; 2% by weight stabilizer
Method: as §3, with “113.” for “112.”, “75” for “65”, “120” for “thirty”

[6] = Ink jet media light fastness, cyan, Example 38; details: 100% print density; office fluorescent lighting; total stabilizer 650-700 mg/m2, mixtures 1:1 by weight
Method: (§4) A resin-coated paper impregnated with inorganic adsorbent particles (Konica QP Photoglossy ink jet paper, Konica Corp.) is purchased. On the ink-receiving layer, a 0.8 wt % methanol solution of the instant compounds is applied in an amount to achieve 650-700 mg/m^2. The paper is allowed to dry under ambient temperature and pressure for 24 hours. Separately, test patterns (cyan and yellow) are printed on the treated sheets using a Hewlett Packard DeskJet 970 Cxi printer at 100% print density. The obtained prints are left to dry at ambient temperature and pressure for 24 hours. Color densities and CIEL*a*b coordinates before and after exposure are measured using X-Rite 938 Spectrodensitometer. Exposures are carried out using normal office fluorescent lighting.

[7] = Ink jet media light fastness, yellow, Example 38; details: 100% print density; office fluorescent lighting; total stabilizer 650-700 mg/m2, mixtures 1:1 by weight
Method: as §4

[8] = Ink jet media light fastness, cyan, Example 31; details: 100% print density, office fluorescent lighting
Method: as §4, with “mg/m^2, unless otherwise stated.” for “mg/m^2.”, “(cyan)” for “(cyan and yellow)”

[9] = Ink jet media light fastness, yellow, Example 33; details: 50% print density as printed, office fluorescent lighting, 650-700 mg/m2
Method: as §4, with “mg/m^2, unless stated otherwise.” for “mg/m^2.”, “(yellow)” for “(cyan and yellow)”, “50%” for “100%”

[10] = Ink jet media light fastness, cyan, Example 34; details: 50% print density, office fluorescent lighting
Method: as §4, with “mg/m^2, unless otherwise stated.” for “mg/m^2.”, “(cyan)” for “(cyan and yellow)”, “50%” for “100%”

[11] = Ink jet media light fastness, yellow, Example 36; details: 50% print density, office fluorescent lighting, 650-700 mg/m2
Method: as §4, with “mg/m^2, unless stated otherwise.” for “mg/m^2.”, “(yellow)” for “(cyan and yellow)”, “50%” for “100%”

[12] = Solubility in 50% butyl carbitol / 50% water; type: physicochemical; details: 50% butyl carbitol / 50% water by weight; stirred 30 minutes
Method: (§5) The solubility of the instant compounds is evaluated in polar solvent systems. A solution of 50% butyl carbitol by weight and 50% water by weight is prepared. The instant compounds are added to this solution, stirred for 30 minutes, and sampled for analysis. Samples containing bis(1-octyloxy-2,2,6,6-tetramethylpiperidin-4-yl)sebacate and 4-hydroxy-1-(2-hydroxy-2-methylpropoxy)-2,2,6,6-tetramethylpiperidine are filtered to remove any undissolved residue and all samples are analyzed by high pressure liquid chromatography or gas chromatography.

[13] = Solubility in 50% butyl cellusolve / 50% water; type: physicochemical; details: 50% butyl cellusolve / 50% water by weight; stirred 30 minutes
Method: as §5, with “cellusolve” for “carbitol”, “solution” for “solution,”

[14] = Dye fading of shampoo under fluorescent light, Example 49; details: Clairol Herbal Essences shampoo; fluorescent light aging; loading 0.30 wt %
Method: (§6) The instant compounds are added to a commercial shampoo formulation and are evaluated for their ability to reduce the amount of dye fading when the samples are exposed to fluorescent lighting. The instant compounds (0.36 g) are dissolved in 5 mL of methanol which is then added to 120 g of shampoo (Clairol^R Herbal Essences Shampoo) with agitation. A benzotriazole UV absorber, 2-(2-hydroxy-3-tert-butyl-5-methylphenyl)-2H-benzotriazole-5-sulfonic acid, sodium salt (UVA), is optionally added to the shampoo formulation. The stabilized shampoo formulation is agitated for 15 minutes and put into 20 mL glass scintillation vials. These formulations are weathered under fluorescent light aging at ambient temperature. The CIEL*a*b coordinates before and after exposure are measured using X-Rite 938 Spectrodensitometer. Color change is expressed as Delta E (DE).

[15] = Dye fading of shampoo under fluorescent light, Example 48; details: Suave shampoo; fluorescent light aging, ambient temperature; loading 0.30 wt %
Method: as §6, with “(Suave^R Natural^R, Fresh Mountain Strawberry)” for “(Clairol^R Herbal Essences Shampoo)”, “formulation at an equivalent concentration.” for “formulation.”

[16] = Ink jet media light fastness, magenta, Example 32; details: 100% print density, office fluorescent lighting
Method: as §4, with “mg/m^2, unless otherwise stated.” for “mg/m^2.”, “(magenta)” for “(cyan and yellow)”

Solidified coating in jar, clarity, 0 days [1]: hazy
Solidified coating in jar, clarity, 1 days [1]: hazy
Solidified coating in jar, clarity, 19 days [1]: hazy
Liquid coating in jar, clarity, 0 [2]: hazy
Liquid coating in jar, clarity, 1 Month [2]: hazy
Liquid coating in jar, clarity, Day 1 [2]: hazy
Solidified coating in jar, clarity, 0 [3]: hazy
Solidified coating in jar, clarity, 1 Month [3]: hazy
Solidified coating in jar, clarity, Day 1 [3]: hazy
Solidified coating in Petri Dish, clarity, 0 [4]: hazy
Solidified coating in Petri Dish, clarity, 1 Month [4]: hazy
Solidified coating in Petri Dish, clarity, Day 1 [4]: hazy
Solidified coating in Petri Dish, clarity, 0 [5]: hazy
Solidified coating in Petri Dish, clarity, 1 Month [5]: hazy
Solidified coating in Petri Dish, clarity, Day 1 [5]: hazy
SMILES: CCCCCCCCON1C(C)(C)CC(OC(=O)CCCCCCCCC(=O)OC2CC(C)(C)N(OCCCCCCCC)C(C)(C)C2)CC1(C)C [B]

SMILES: Cl.ON(Cc1ccccc1)Cc1ccccc1 [Compound A, N,N-dibenzylhydroxylamine hydrochloride, reference compound]
DE for cyan after 3 months [6]: 11.96
DE for yellow after 3 months [7]: 5.31

SMILES: CC(C)(O)CON1C(C)(C)CC(=NO)CC1(C)C [Example 2]
DE for cyan after 4 weeks ([8]; 650-700 mg/m2): 4.69
DE for yellow after 4 weeks [9]: 3.87
DE for cyan after 4 weeks ([10]; 650-700 mg/m2): 5.53
DE for yellow after 4 weeks [11]: 1.36

SMILES: CC(NC1CC(C)(C)N(OCC(C)(C)O)C(C)(C)C1)C(=O)[O-].[K+] (stereo not drawn) [Example 5]
Solubility (% by weight) [12]: ≧15 % by weight
Solubility (% by weight) [13]: ≧18 % by weight
DE after 2 weeks [14]: 1.55

SMILES: CN(C)CCNC1CC(C)(C)N(OCC(C)(C)O)C(C)(C)C1 [Example 6]
DE after 2 weeks [15]: 7.53

SMILES: CC(C)(O)CON1C(C)(C)CC(OC(=O)CCC(=O)O)CC1(C)C [Example 17]
DE after 2 weeks [15]: 8.91

SMILES: CC(C)(O)CON1C(C)(C)CC(NCCO)CC1(C)C.Cl [Example 22]
DE for cyan after 4 weeks ([8]; 650-700 mg/m2): 5.26
DE for cyan after 4 weeks ([8]; (2x) 1300 to 1400 mg/m2): 4.62
DE for magenta after 4 weeks ([16]; 650-700 mg/m2): 25.20
DE for magenta after 4 weeks ([16]; (2x) 1300 to 1400 mg/m2): 21.96
DE for yellow after 4 weeks [9]: 5.53
DE for cyan after 4 weeks ([10]; 650-700 mg/m2): 5.98
DE for cyan after 4 weeks ([10]; (2x) 1300 to 1400 mg/m2): 5.11
DE for yellow after 4 weeks [11]: 3.15

SMILES: CC(=O)NCC(=O)NC1CC(C)(C)N(OCC(C)(C)O)C(C)(C)C1 [Example 37]
DE for cyan after 3 months [6]: 11.39
DE for yellow after 3 months [7]: 2.96

Reference: US7550599B2, “Water compatible sterically hindered alkoxyamines and hydroxy substituted alkoxyamines” (Ciba Specialty Chemicals Corporation, priority 2003, dated 2009)
